Laboratory results as given in the supplement of paper PMC8967900.

The molecules below were run on HAL-01 (assay: selective drug sensitivity score (sDSS, relative to normal bone marrow) (sDSS (score)); higher = more potent and effective on the cell line relative to normal bone marrow cells). Conditions: 72 h.
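Further: ALL cell lines in 384-well plates, five doses spanning 10,000-fold, each plate scaled between vehicle and 100 µmol/L benzalkonium chloride controls, sDSS an adapted area-under-curve metric.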

Row | Structure (SMILES) | selective drug sensitivity score
1 | COCCNCc1ccc(-c2cc3nccc(Oc4ccc(NC(=S)NC(=O)Cc5ccc(F)cc5)cc4F)c3s2)nc1 [Glesatinib] (top concentration 2500 nM) | 2.44
2 | Cn1nccc1Nc1nccc(-c2ccn([C@H](CO)c3ccc(Cl)c(F)c3)c(=O)c2)n1 [Ravoxertinib] (top concentration 10000 nM) | 1.9
3 | CC1=NN(c2ccc(C(=O)O)cc2)C(=O)C1=Cc1ccc(-c2cc(C)c(C)cc2[N+](=O)[O-])o1 [C646] (top concentration 25000 nM) | -2.06
4 | CC(C)c1cc(C(=O)N2Cc3ccc(CN4CCN(C)CC4)cc3C2)c(O)cc1O [Onalespib] (top concentration 2500 nM) | 1.82
5 | CCN1C(=O)CNc2ncc(-c3ccc(-c4nc[nH]n4)nc3C)nc21 [CC-115] (top concentration 10000 nM) | 2.54
6 | COc1cc(N2CCC(N3CCN(C)CC3)CC2)ccc1Nc1ncc(Cl)c(Nc2ccccc2P(C)(C)=O)n1 [Brigatinib] (top concentration 1000 nM) | 6.06
7 | CN1CCN(c2nc(C3=C(c4c[nH]c5ccccc45)C(=O)NC3=O)c3ccccc3n2)CC1 [Sotrastaurin] (top concentration 10000 nM) | 2.3
8 | CCN(CC)Cc1ccc2cc(COC(=O)Nc3ccc(C(=O)NO)cc3)ccc2c1 [Givinostat] (top concentration 1000 nM) | -2.4
9 | CNC(=O)c1cc(Oc2ccc(NC(=O)Nc3ccc(Cl)c(C(F)(F)F)c3)cc2)ccn1 [Sorafenib] (top concentration 1000 nM) | 2.9
10 | COc1ccc(S(=O)(=O)Nc2cccnc2Nc2ccc(O)cc2)cc1 [ABT-751] (top concentration 10000 nM) | 11.7

The molecules below were run on KASUMI-10 in the same assay as above. Conditions: 72 h.

Row | Structure (SMILES) | selective drug sensitivity score
11 | Cc1cc(Nc2ncc(Cl)c(Nc3ccccc3S(=O)(=O)C(C)C)n2)c(OC(C)C)cc1C1CCNCC1 [Ceritinib] (top concentration 2500 nM) | 0.36
12 | Cc1nc(Nc2ncc(C(=O)Nc3c(C)cccc3Cl)s2)cc(N2CCN(CCO)CC2)n1 [Dasatinib] (top concentration 1000 nM) | -2.8
13 | N[C@@H]1CCCN(c2c(/C=C3\SC(=O)NC3=O)cccc2-c2ccccc2)C1 [AZD1208] (top concentration 10000 nM) | -4.4
14 | CC(C)C[C@H](NC(=O)CNC(=O)c1cc(Cl)ccc1Cl)B(O)O [Ixazomib] (top concentration 1000 nM) | 3.16
15 | C=CC(=O)N1CCC[C@@H](n2nc(-c3ccc(Oc4ccccc4)cc3)c3c(N)ncnc32)C1 [Ibrutinib] (top concentration 1000 nM) | 0
16 | Cn1cnc2c(F)c(Nc3ccc(Br)cc3F)c(C(=O)NOCCO)cc21 [Binimetinib] (top concentration 1000 nM) | 0.28
17 | COc1cc(Nc2ncc(F)c(Nc3ccc4c(n3)N(COP(=O)(O)O)C(=O)C(C)(C)O4)n2)cc(OC)c1OC [Fostamatinib] (top concentration 2500 nM) | 8.66
18 | COc1cc2c(Oc3ccc(NC(=O)C4(C(=O)Nc5ccc(F)cc5)CC4)cc3F)ccnc2cc1OCCCN1CCOCC1 [Foretinib] (top concentration 1000 nM) | 17.8
19 | Sc1ncnc2nc[nH]c12 [Mercaptopurine] (top concentration 10000 nM) | 6.9
20 | COCCNCc1ccc(-c2cc3nccc(Oc4ccc(NC(=S)NC(=O)Cc5ccc(F)cc5)cc4F)c3s2)nc1 [Glesatinib] (top concentration 2500 nM) | 8.74
21 | Cn1nccc1Nc1nccc(-c2ccn([C@H](CO)c3ccc(Cl)c(F)c3)c(=O)c2)n1 [Ravoxertinib] (top concentration 10000 nM) | 5.2
22 | CC1=NN(c2ccc(C(=O)O)cc2)C(=O)C1=Cc1ccc(-c2cc(C)c(C)cc2[N+](=O)[O-])o1 [C646] (top concentration 25000 nM) | -0.36
23 | CC(C)c1cc(C(=O)N2Cc3ccc(CN4CCN(C)CC4)cc3C2)c(O)cc1O [Onalespib] (top concentration 2500 nM) | 3.92
24 | CCN1C(=O)CNc2ncc(-c3ccc(-c4nc[nH]n4)nc3C)nc21 [CC-115] (top concentration 10000 nM) | 0.14
25 | COc1cc(N2CCC(N3CCN(C)CC3)CC2)ccc1Nc1ncc(Cl)c(Nc2ccccc2P(C)(C)=O)n1 [Brigatinib] (top concentration 1000 nM) | 4.76
26 | CN1CCN(c2nc(C3=C(c4c[nH]c5ccccc45)C(=O)NC3=O)c3ccccc3n2)CC1 [Sotrastaurin] (top concentration 10000 nM) | 7.7
27 | CCN(CC)Cc1ccc2cc(COC(=O)Nc3ccc(C(=O)NO)cc3)ccc2c1 [Givinostat] (top concentration 1000 nM) | 4.7
28 | CNC(=O)c1cc(Oc2ccc(NC(=O)Nc3ccc(Cl)c(C(F)(F)F)c3)cc2)ccn1 [Sorafenib] (top concentration 1000 nM) | 12.2
29 | COc1ccc(S(=O)(=O)Nc2cccnc2Nc2ccc(O)cc2)cc1 [ABT-751] (top concentration 10000 nM) | 8.12

The molecules below were run on KASUMI-9 in the same assay as above. Conditions: 72 h.

Row | Structure (SMILES) | selective drug sensitivity score
30 | Cc1cc(Nc2ncc(Cl)c(Nc3ccccc3S(=O)(=O)C(C)C)n2)c(OC(C)C)cc1C1CCNCC1 [Ceritinib] (top concentration 2500 nM) | -2.04
31 | Cc1nc(Nc2ncc(C(=O)Nc3c(C)cccc3Cl)s2)cc(N2CCN(CCO)CC2)n1 [Dasatinib] (top concentration 1000 nM) | 3.1
32 | N[C@@H]1CCCN(c2c(/C=C3\SC(=O)NC3=O)cccc2-c2ccccc2)C1 [AZD1208] (top concentration 10000 nM) | -1.7
33 | CC(C)C[C@H](NC(=O)CNC(=O)c1cc(Cl)ccc1Cl)B(O)O [Ixazomib] (top concentration 1000 nM) | 6.56
34 | C=CC(=O)N1CCC[C@@H](n2nc(-c3ccc(Oc4ccccc4)cc3)c3c(N)ncnc32)C1 [Ibrutinib] (top concentration 1000 nM) | 1.3
35 | Cn1cnc2c(F)c(Nc3ccc(Br)cc3F)c(C(=O)NOCCO)cc21 [Binimetinib] (top concentration 1000 nM) | -0.92
36 | COc1cc(Nc2ncc(F)c(Nc3ccc4c(n3)N(COP(=O)(O)O)C(=O)C(C)(C)O4)n2)cc(OC)c1OC [Fostamatinib] (top concentration 2500 nM) | 1.76
37 | COc1cc2c(Oc3ccc(NC(=O)C4(C(=O)Nc5ccc(F)cc5)CC4)cc3F)ccnc2cc1OCCCN1CCOCC1 [Foretinib] (top concentration 1000 nM) | -0.06
38 | Sc1ncnc2nc[nH]c12 [Mercaptopurine] (top concentration 10000 nM) | 15.4
39 | COCCNCc1ccc(-c2cc3nccc(Oc4ccc(NC(=S)NC(=O)Cc5ccc(F)cc5)cc4F)c3s2)nc1 [Glesatinib] (top concentration 2500 nM) | -0.36
40 | Cn1nccc1Nc1nccc(-c2ccn([C@H](CO)c3ccc(Cl)c(F)c3)c(=O)c2)n1 [Ravoxertinib] (top concentration 10000 nM) | 5.3
41 | CC1=NN(c2ccc(C(=O)O)cc2)C(=O)C1=Cc1ccc(-c2cc(C)c(C)cc2[N+](=O)[O-])o1 [C646] (top concentration 25000 nM) | 4.74
42 | CC(C)c1cc(C(=O)N2Cc3ccc(CN4CCN(C)CC4)cc3C2)c(O)cc1O [Onalespib] (top concentration 2500 nM) | -2.18
43 | CCN1C(=O)CNc2ncc(-c3ccc(-c4nc[nH]n4)nc3C)nc21 [CC-115] (top concentration 10000 nM) | 4.54
44 | COc1cc(N2CCC(N3CCN(C)CC3)CC2)ccc1Nc1ncc(Cl)c(Nc2ccccc2P(C)(C)=O)n1 [Brigatinib] (top concentration 1000 nM) | 3.56
45 | CN1CCN(c2nc(C3=C(c4c[nH]c5ccccc45)C(=O)NC3=O)c3ccccc3n2)CC1 [Sotrastaurin] (top concentration 10000 nM) | 0.5
46 | CCN(CC)Cc1ccc2cc(COC(=O)Nc3ccc(C(=O)NO)cc3)ccc2c1 [Givinostat] (top concentration 1000 nM) | 7.6
47 | CNC(=O)c1cc(Oc2ccc(NC(=O)Nc3ccc(Cl)c(C(F)(F)F)c3)cc2)ccn1 [Sorafenib] (top concentration 1000 nM) | 0
48 | COc1ccc(S(=O)(=O)Nc2cccnc2Nc2ccc(O)cc2)cc1 [ABT-751] (top concentration 10000 nM) | 10.4
